Test results as given in US20090286695A1, “LUMINESCENT STEM CELLS AND USES THEREOF” (AXXAM S.P.A., priority 2006, published 2009).
One block for each compound: values may come before it.

Assays:
Type in all cases: cell-based, mouse
[1] = tested on: Metabotropic or Ionotropic Glutamate Receptors; assay: FLIPR384 Fluo-4 NW calcium test on undifferentiated and neuron-differentiated P19/mito c-Photina/1A1 clone; conditions: 100 μM final; undifferentiated cells vs day 8 neurons; FIG. 23
Method: Concerning undifferentiated P19/mito c-Photina®/1A1 clone, 3000 cells/well were seeded in gelatin coated 384 well plates. 24 h after seeding the cells were incubated with 25 μl/well of Fluo-4 NW® calcium sensitive fluorescent dye in the dark.
Concerning neurons differentiated from P19/mito c-Photina®/1A1 clone, at day 8 of the neuronal differentiation protocol (4 days after seeding in poly D-lysine coated 384 well plates) cells were incubated with 25 μl/well of Fluo-4 NW® calcium sensitive fluorescent dye in the dark.
Both plates were incubated for 30 minutes at 37° C. and then for 30 minutes at room temperature.
12.5 μl/well of the following 3× compounds in tyrode buffer were injected, and the fluorescence signal was recorded for 330 sec and expressed as RFU.
The same experiment was in contemporary performed on undifferentiated P19/mito c-Photina® 1A1 clone (at 24 h after seeding of 3000 cells/well in 384 MTP, FIG. 23A).

[2] = tested on: neurons differentiated from P19/mito c-Photina/1A1 clone; assay: FLIPR384 Fluo-4 NW test on neurons differentiated from P19/mito c-Photina/1A1 clone; conditions: 40 mM, differentiation day 8, FIG. 22
Method: 12.5 μl/well of 120 mM KCl (3×) solution was injected, and the fluorescence signal was recorded for 360 sec and expressed as RFU (Relative Fluorescence Units).
At differentiation day 8 the same cells were analyzed also at FLIPR^384 incubating the cells with FLUO-4 NW® and injecting 40 mM KCl depolarizing agent.

[3] = tested on: Voltage-gated Calcium Channels; assay: CCD camera-based luminometer test on neurons differentiated from P19/mito c-Photina/1A1 clone; conditions: 40 mM; differentiation day 8 and 11; 384 MTP; tyrode as control; FIG. 21
Method: At day 8 and day 11 of the neuronal differentiation protocol (respectively 4 and 7 days after seeding in poly D-lysine coated 384 MTP), neurons differentiated from P19/mito c-Photina®/1A1 clone were incubated with 25 μl/well of 10 μM coelenterazine in standard tyrode buffer, for 4 hrs at 37° C.
Response to a depolarizing stimulus induced by injection of 40 mM KCl was recorded at CCD camera-based luminometer (conditions: high sensitivity, reading time 60 seconds).
The functionality of these cells was also investigated at CCD camera-based luminometer. At differentiation day 8 and 11 (respectively 4 and 7 days after disaggregation of Embryoid Bodies and seeding on poly D-lysine in 384 MTP), the cells were incubated for 4 h with a tyrode solution containing 10 μM coelenterazine.

[4] = tested on: α1-Adrenergic Receptor; assay: CCD camera-based luminescent functional test on cardiomyocytes differentiated from ES/mito c-Photina/29 clone; conditions: 100 μM; 20,000 c/w in 96 MTP; 10 μM coelenterazine; high sens., 60 sec; FIG. 8A
[5] = tested on: GqPCR Endothelin Receptors; assay: as above; conditions: 50 nM; 20,000 c/w in 96 MTP; 10 μM coelenterazine; high sens., 60 sec; FIG. 8A
Method: CCD-Camera Based Luminometer Measurements with Cardiomyocytes • EBs were dissociated at differentiation day 9 with Accutase™ (Chemicon, Cat. N. SCR005), counted and incubated (20000 cells/well in a 96 MTP) in 10 μM coelenterazine in standard tyrode buffer (for the test on GqPCRs) and in tyrode without KCl (for the test on L-type Calcium Channels) for 3 hrs at 37° C. • The tests were run 3 h after cell seeding. • The responses to 50 nM Endothelin-1, 100 μM Noraepinephrine were measured at the CCD camera-based luminometer (conditions: high sensitivity, reading time 60 seconds). • The Voltage gated Calcium Channels were stimulated with 40 mM KCl. The specificity of the channels was checked incubating the cells 15 minutes before he measurement with 5 μM Nifedipine (a specific L-type Voltage-gated Calcium Channel inhibitor) (SIGMA, Cat. N. N7634). • Residual total photoprotein activity was measured after Triton X-100 cell lysis at the CCD camera-based luminometer (conditions: high sensitivity, for 30 seconds). Neuronal Differentiation Protocol with the Embryoid Bodies (EBs) Formation Step
Preliminary functional tests were performed at the CCD camera-based luminometer instrument after Embryoid Bodies disaggregation with Accutase® buffer and resuspension in 10 μM coelenterazine tyrode buffer. The cells were counted and seeded at a cellular concentration of 20,000 c/w in a 96 MTP. […]

Compound: N[C@@H](CCC(=O)O)C(=O)O [Glutamate]
fluorescence signal after stimulation, undifferentiated vs differentiated cells [1]: much higher in the differentiated cells than in the undifferentiated ones

Compound: [Cl-].[K+] [KCl]
fluorescence signal (calcium entry) after depolarizing agent [2]: sensible increase of the signal
luminescence response to depolarizing stimulus [3]: optimal responses

luminescence response (calcium) to agonist [4]: strong
Compound: NC[C@H](O)c1ccc(O)c(O)c1 [Norephinephrine]

luminescence response (calcium) to agonist [5]: strong
Compound: Endothelin-1
